Data from US20240116985A1, “STAPLED PEPTIDES AND METHODS THEREOF” (priority 2020, published 2024).
Values after ≈ are worked out from the molar mass of the structure shown. Values joined by “and” are separate entries in the source; they are usually repeats but may differ in a detail not shown here. Identical values can stand only once. Like-named read-outs stand apart in the source and are kept apart here.

Key:
[1] = test system: TCF/LEF luciferase Reporter in DLD1 cells; experiment: TCF reporter assay (DLD1 TCF/LEF luciferase reporter, Bright-Glo); format: cell-based; conditions: for DLD1 TCF c2 BrightGlo % Inhibition: replicates
Summary of the method: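 Readouts: Bright-Glo luciferase for reporter signal and CellTiter-Glo for cell viability, with absolute IC50 derived. The reporter clone came from lentiviral TCF/LEF-luciferase transduction of DLD1 cells, seeded 5000 cells/well in RPMI with 4% FBS and exposed overnight to serially diluted compounds.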

[2] = molecular target: T1, beta-catenin/TCF4 engagement (Homo sapiens, UniProt P35222); experiment: Nano-BRET target engagement assay (B-cat-Halo & TCF4-Luc in HEK293 cells); format: cell-based; conditions: absolute IC50; read-out: NanoBRET Abs IC50
T1 construct: expressed in transfected cells; host or cells: HEK293
T1 sequence (P35222 1-781): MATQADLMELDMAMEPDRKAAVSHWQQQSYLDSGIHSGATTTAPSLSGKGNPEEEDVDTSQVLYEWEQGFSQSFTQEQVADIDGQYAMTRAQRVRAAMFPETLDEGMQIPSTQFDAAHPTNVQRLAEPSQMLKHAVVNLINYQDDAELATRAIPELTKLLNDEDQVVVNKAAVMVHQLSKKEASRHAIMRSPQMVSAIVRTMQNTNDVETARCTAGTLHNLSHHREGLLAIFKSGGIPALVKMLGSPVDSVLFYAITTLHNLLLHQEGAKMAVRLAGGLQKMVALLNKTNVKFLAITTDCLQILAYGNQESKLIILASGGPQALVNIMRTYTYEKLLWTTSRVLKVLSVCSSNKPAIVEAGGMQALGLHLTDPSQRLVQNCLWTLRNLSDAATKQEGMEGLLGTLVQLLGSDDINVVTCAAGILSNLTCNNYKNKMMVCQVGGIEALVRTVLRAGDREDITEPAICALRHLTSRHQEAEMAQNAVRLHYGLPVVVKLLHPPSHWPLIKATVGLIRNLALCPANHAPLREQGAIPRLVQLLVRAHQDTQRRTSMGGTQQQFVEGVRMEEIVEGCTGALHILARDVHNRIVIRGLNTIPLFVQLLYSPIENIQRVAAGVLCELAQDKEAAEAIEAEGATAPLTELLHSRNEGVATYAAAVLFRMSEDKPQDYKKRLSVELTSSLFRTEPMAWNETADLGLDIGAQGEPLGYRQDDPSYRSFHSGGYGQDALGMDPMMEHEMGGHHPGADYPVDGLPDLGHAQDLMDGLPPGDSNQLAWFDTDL

Solubility in PBS = format: physicochemical; conditions: Solubility (uM)
Summary of the method: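 Read-out is the HPLC peak area of the supernatant from ultracentrifuged PBS solution, scaled against a 50 μM peptide DMSO injection; value reported as [(PBS area)/(DMSO area)]*50 uM.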

CHI Log D procedure = format: physicochemical; conditions: pH 7.4, CHI Log D
[3] = molecular target: T2, full-length beta-Catenin (Uniprot ID P35222) (Homo sapiens, UniProt P35222); experiment: Fluorescence polarization IC50 (beta-catenin / 5FAM-TCF4 10-53 competition); format: binding; conditions: read-out: beta-Catenin FP IC50
T2 construct: 10 nM full-length beta-Catenin (Uniprot ID P35222)
T2 sequence (P35222 1-781): T1 sequence (P35222 1-781)

[4] = absolute IC50, read-out: DLD1 reporter assay Abs IC50
[5] = read-out: DLD1 4% Abs IC50, DLD1 4%
[6] = first dose = 20 uM (plate map), 20 µM
[7] = third dose = 5 uM (plate map), 5 µM

IC50 [1, 4] [µM]	IC50 [2] [µM]	Solubility (Solubility in PBS) [µM]	chromatographic logD (CHI Log D procedure)	IC50 [3] [µM]	IC50 [1, 5] [µM]	SMILES	DLD1 TCF c2 BrightGlo % Inhibition [1, 6]	DLD1 TCF c2 BrightGlo % Inhibition ([1]; 0.625 µM)	DLD1 TCF c2 BrightGlo % Inhibition ([1]; 1.25 µM)	DLD1 TCF c2 BrightGlo % Inhibition ([1]; 2.5 µM)	DLD1 TCF c2 BrightGlo % Inhibition ([1]; 10 µM)	DLD1 TCF c2 BrightGlo % Inhibition [1, 7]
> 20	> 20	47 (≈ 90.9 µg/mL)	2.76	0.507		CC(=O)N1CCC[C@]12CC=CCCCC1(CCCC=CCCCOC(=O)N3CC[C@@](C(=O)N[C@@H](Cc4ccccc4Cl)C(=O)N[C@@H](Cc4csc5ccccc45)C(=O)N[C@@H](C(N)=O)[C@H](C)O)(C3)NC(=O)[C@H](CC(N)=O)NC(=O)[C@H](Cc3ccccc3)NC(=O)[C@H](C)NC(=O)[C@H](C)NC(=O)[C@H](CC(=O)O)NC(=O)[C@H](CCC(=O)O)NC1=O)NC(=O)[C@H](CC(C)(C)C)NC(=O)[C@H](CC(=O)O)NC2=O (stereo partly drawn) [I-1030, Ac-PL3-Asp-Npg-B5-Glu-Asp-Ala-Ala-Phe-Asn-PyrS2-2C1F-BztA-dThr-NH2]						
11.9	9.5	12 (≈ 23.4 µg/mL)	2.71	0.027	4	CC(=O)N1CCC[C@]12CC=CCCCC1(CCCC=CCCCOC(=O)N3CC[C@@](C(=O)N[C@@H](Cc4ccccc4Cl)C(=O)N[C@@H](Cc4csc5ccccc45)C(=O)N[C@@H](C(N)=O)[C@H](C)O)(C3)NC(=O)[C@H](Cc3ccccc3)NC(=O)[C@H](Cc3ccccc3)NC(=O)[C@H](C)NC(=O)[C@H](C)NC(=O)[C@H](CC(=O)O)NC(=O)[C@H](CC(=O)O)NC1=O)NC(=O)[C@H](CC(C)(C)C)NC(=O)[C@H](CC(=O)O)NC2=O (stereo partly drawn) [I-1034, Ac-PL3-Asp-Npg-B5-Asp-Asp-Ala-Ala-Phe-Phe-PyrS2-2C1F-BztA-dThr-NH2]						
> 20	10.2	28 (≈ 53.7 µg/mL)	2.63	0.021		CC(=O)N1CCC[C@]12CC=CCCCC1(CCCC=CCCCOC(=O)N3CC[C@@](C(=O)N[C@@H](Cc4ccccc4Cl)C(=O)N[C@@H](Cc4csc5ccccc45)C(=O)N[C@@H](C(N)=O)[C@H](C)O)(C3)NC(=O)[C@H](CC(C)C)NC(=O)[C@H](Cc3ccccc3)NC(=O)[C@H](C)NC(=O)[C@H](C)NC(=O)[C@H](CC(=O)O)NC(=O)[C@H](CC(=O)O)NC1=O)NC(=O)[C@H](CC(C)(C)C)NC(=O)[C@H](CC(=O)O)NC2=O (stereo partly drawn) [I-1035, Ac-PL3-Asp-Npg-B5-Asp-Asp-Ala-Ala-Phe-Leu-PyrS2-2C1F-BztA-dThr-NH2]						
20	17.6	43 (≈ 83.7 µg/mL)	2.32	0.005	14.5	CC(=O)N1CCC[C@]12CC=CCCCC1(CCCC=CCCCOC(=O)N3CC[C@@](C(=O)N[C@@H](Cc4ccccc4Cl)C(=O)N[C@@H](Cc4csc5ccccc45)C(=O)N[C@@H](CCC(N)=O)C(N)=O)(C3)NC(=O)[C@H](CO)NC(=O)[C@H](Cc3ccccc3)NC(=O)[C@H](C)NC(=O)[C@H](C)NC(=O)[C@H](CC(=O)O)NC(=O)[C@H](CC(=O)O)NC1=O)NC(=O)[C@H](CC1CCCCC1)NC(=O)[C@H](CC(=O)O)NC2=O (stereo partly drawn) [I-1044, Ac-PL3-Asp-Cha-B5-Asp-Asp-Ala-Ala-Phe-Ser-PyrS2-2C1F-BztA-Gln-NH2]						
10.5	8.8	42 (≈ 80.6 µg/mL)	2.52	0.005		CC(=O)N1CCC[C@]12CC=CCCCC1(CCCC=CCCCOC(=O)N3CC[C@@](C(=O)N[C@@H](Cc4ccccc4Cl)C(=O)N[C@@H](Cc4csc5ccccc45)C(=O)N[C@@H](CO)C(N)=O)(C3)NC(=O)[C@H]([C@@H](C)O)NC(=O)[C@H](Cc3ccccc3)NC(=O)[C@H](C)NC(=O)[C@H](C)NC(=O)[C@H](CC(=O)O)NC(=O)[C@H](CC(=O)O)NC1=O)NC(=O)[C@H](CC1CCCCC1)NC(=O)[C@H](CC(=O)O)NC2=O (stereo partly drawn) [I-1048, Ac-PL3-Asp-Cha-B5-Asp-Asp-Ala-Ala-Phe-Thr-PyrS2-2C1F-BztA-Ser-NH2]						
11.2	24.8	43 (≈ 81.9 µg/mL)	2.45	0.005		CC(=O)N1CCC[C@]12CC=CCCCC1(CCCC=CCCCOC(=O)N3CC[C@@](C(=O)N[C@@H](Cc4ccccc4Cl)C(=O)N[C@@H](Cc4csc5ccccc45)C(=O)N[C@@H](CO)C(N)=O)(C3)NC(=O)[C@H](CO)NC(=O)[C@H](Cc3ccccc3)NC(=O)[C@H](C)NC(=O)[C@H](C)NC(=O)[C@H](CC(=O)O)NC(=O)[C@H](CC(=O)O)NC1=O)NC(=O)[C@H](CC1CCCCC1)NC(=O)[C@H](CC(=O)O)NC2=O (stereo partly drawn) [I-1050, Ac-PL3-Asp-Cha-B5-Asp-Asp-Ala-Ala-Phe-Ser-PyrS2-2C1F-BztA-Ser-NH2]	61.5% and 59.8% and 58.7%	13.7% and 5.5% and 6.1%	6.8% and −0.9% and −4.5%	6.2% and 1.9% and −2.2%	50.8% and 46.4% and 39.4%	25.4% and 24.7% and 12.9%
> 20	> 20	48 (≈ 91.1 µg/mL)	2.23	0.014		CC(=O)N1CCC[C@]12CC=CCCCC1(CCCC=CCCCOC(=O)N3CC[C@@](C(=O)N[C@@H](Cc4ccccc4Cl)C(=O)N[C@@H](Cc4csc5ccccc45)C(=O)N[C@@H](CO)C(N)=O)(C3)NC(=O)[C@H](CO)NC(=O)[C@H](Cc3ccccc3)NC(=O)[C@H](C)NC(=O)[C@H](C)NC(=O)[C@H](CC(=O)O)NC(=O)[C@H](CC(=O)O)NC1=O)NC(=O)[C@H](Cc1ccccc1)NC(=O)[C@H](CC(=O)O)NC2=O (stereo partly drawn) [I-1051, Ac-PL3-Asp-Phe-B5-Asp-Asp-Ala-Ala-Phe-Ser-PyrS2-2C1F-BztA-Ser-NH2]	20.2% and 21.7% and 24.7%	−1.7% and −3.4% and 0.0%	−12.2% and −5.2% and −3.8%	−12.5% and −11.1% and −13.2%	3.9% and 5.0% and −0.5%	−4.1% and −5.0% and −11.4%
14.5	19.7	45 (≈ 88.9 µg/mL)	2.5	0.005		CCNC(=O)[C@H](CCC(N)=O)NC(=O)[C@H](Cc1csc2ccccc12)NC(=O)[C@H](Cc1ccccc1Cl)NC(=O)[C@]12CCN(C1)C(=O)OCCCC=CCCCC1(CCCC=CC[C@]3(CCCN3C(C)=O)C(=O)N[C@@H](CC(=O)O)C(=O)N[C@@H](CC(C)(C)C)C(=O)N1)C(=O)N[C@@H](CC(=O)O)C(=O)N[C@@H](CC(=O)O)C(=O)N[C@@H](C)C(=O)N[C@@H](C)C(=O)N[C@@H](Cc1ccccc1)C(=O)N[C@@H](CC(N)=O)C(=O)N2 (stereo partly drawn) [I-1079, Ac-PL3-Asp-Npg-B5-Asp-Asp-Ala-Ala-Phe-Asn-PyrS2-2C1F-BztA-Gln-NHEt]	55.6% and 58.1% and 54.7%	1.4% and 6.9% and 6.8%	1.4% and −0.6% and 2.6%	−25.7% and −0.8% and 5.1%	34.2% and 39.4% and 42.0%	7.4% and 16.0% and 26.5%
17.2	> 20	47 (≈ 90.2 µg/mL)	2.59	0.006	10.4	CC(=O)N1CCC[C@]12CC=CCCCC1(CCCC=CCCCOC(=O)N3CC[C@@](C(=O)N[C@@H](Cc4ccccc4Cl)C(=O)N[C@@H](Cc4csc5ccccc45)C(=O)N[C@H](CO)CC(C)C)(C3)NC(=O)[C@H](CC(N)=O)NC(=O)[C@H](Cc3ccccc3)NC(=O)[C@H](C)NC(=O)[C@H](C)NC(=O)[C@H](CC(=O)O)NC(=O)[C@H](CC(=O)O)NC1=O)NC(=O)[C@H](CC(C)(C)C)NC(=O)[C@H](CC(=O)O)NC2=O (stereo partly drawn) [I-1080, Ac-PL3-Asp-Npg-B5-Asp-Asp-Ala-Ala-Phe-Asn-PyrS2-2C1F-BztA-Leuo1]	51.4% and 56.9% and 51.8%	20.2% and 13.7% and 15.3%	16.0% and 13.8% and 12.3%	14.6% and 19.8% and 7.9%	42.4% and 42.2% and 38.1%	24.9% and 31.0% and 24.4%
